Measured values reported in patent publication US10844077B2, “Thiazolyl-containing compounds for treating proliferative diseases” (Dana-Farber Cancer Institute, Inc., priority 2014, dated 2020).
Like-named read-outs stand apart in the source and are kept apart here.

Columns and labels:
Format in all cases: binding
broad panel of kinases [1] = target: broad panel of kinases (Homo sapiens, UniProt O96017); details: CHEK2; 1 μM
broad panel of kinases [2] = target: broad panel of kinases (Homo sapiens, UniProt Q96NX5); details: CAMK1G; 1 μM
broad panel of kinases [3] = target: broad panel of kinases (Homo sapiens, UniProt Q99755); details: PIP5K1A; 1 μM
broad panel of kinases [4] = target: broad panel of kinases (Homo sapiens, UniProt P21802); details: FGFR2; 1 μM
broad panel of kinases [5] = target: broad panel of kinases (Homo sapiens, UniProt O43293); details: DAPK3; 1 μM
broad panel of kinases [6] = target: broad panel of kinases (Homo sapiens, UniProt P07332); details: FES; 1 μM
broad panel of kinases [7] = target: broad panel of kinases (Homo sapiens, UniProt P48729); details: CSNK1A1; 1 μM
broad panel of kinases (Homo sapiens, UniProt P48729), sequence (P48729 2-337 limits assumed): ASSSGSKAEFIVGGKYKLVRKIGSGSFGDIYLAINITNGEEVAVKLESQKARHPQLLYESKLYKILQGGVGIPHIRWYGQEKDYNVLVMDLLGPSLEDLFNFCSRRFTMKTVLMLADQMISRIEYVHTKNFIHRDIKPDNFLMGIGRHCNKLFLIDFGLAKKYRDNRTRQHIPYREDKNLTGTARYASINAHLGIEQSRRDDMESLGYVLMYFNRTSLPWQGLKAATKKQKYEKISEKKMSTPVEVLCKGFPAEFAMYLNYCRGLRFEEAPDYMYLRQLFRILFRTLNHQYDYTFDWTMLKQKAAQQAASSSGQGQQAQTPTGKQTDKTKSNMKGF

broad panel of kinases [8] = target: broad panel of kinases (Homo sapiens, UniProt O75676); details: 1 μM
broad panel of kinases [9] = target: broad panel of kinases (Homo sapiens, UniProt P51955); details: NEK2; 1 μM
broad panel of kinases [10] = target: broad panel of kinases (Homo sapiens, UniProt O94768); details: DRAK2; 1 μM
broad panel of kinases [11] = target: broad panel of kinases (Homo sapiens, UniProt Q13153); details: PAK1; 1 μM
broad panel of kinases (Homo sapiens, UniProt Q13153), sequence (Q13153 2-545 limits assumed): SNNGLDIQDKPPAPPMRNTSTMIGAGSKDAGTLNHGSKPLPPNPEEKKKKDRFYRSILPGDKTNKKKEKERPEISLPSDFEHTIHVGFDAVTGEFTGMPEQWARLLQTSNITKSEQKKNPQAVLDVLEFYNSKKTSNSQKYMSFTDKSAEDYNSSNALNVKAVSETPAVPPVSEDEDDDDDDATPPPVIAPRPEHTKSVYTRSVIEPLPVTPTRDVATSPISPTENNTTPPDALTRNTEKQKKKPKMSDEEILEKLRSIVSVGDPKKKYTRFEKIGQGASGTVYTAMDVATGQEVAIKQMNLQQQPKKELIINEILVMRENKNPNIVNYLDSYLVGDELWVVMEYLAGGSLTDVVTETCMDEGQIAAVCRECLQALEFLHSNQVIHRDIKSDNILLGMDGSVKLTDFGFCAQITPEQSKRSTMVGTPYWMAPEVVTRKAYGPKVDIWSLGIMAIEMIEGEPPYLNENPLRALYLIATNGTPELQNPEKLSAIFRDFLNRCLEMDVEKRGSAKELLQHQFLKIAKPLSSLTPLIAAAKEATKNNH

broad panel of kinases [12] = target: broad panel of kinases (Homo sapiens, UniProt Q6ZN16); details: MAP3K15; 1 μM
broad panel of kinases [13] = target: broad panel of kinases (Homo sapiens, UniProt Q13546); details: RIPK1; 1 μM
broad panel of kinases [14] = target: broad panel of kinases (Homo sapiens, UniProt P50750); details: CDK9; 1 μM
broad panel of kinases [15] = target: broad panel of kinases (Homo sapiens, UniProt O95819); details: MAP4K4; 1 μM
broad panel of kinases [16] = target: broad panel of kinases (Homo sapiens, UniProt Q8TDR2); details: STK35; 1 μM
broad panel of kinases [17] = target: broad panel of kinases (Homo sapiens, UniProt Q16288); details: TRKC; 1 μM
broad panel of kinases (Homo sapiens, UniProt Q16288), sequence (Q16288 32-839 limits assumed): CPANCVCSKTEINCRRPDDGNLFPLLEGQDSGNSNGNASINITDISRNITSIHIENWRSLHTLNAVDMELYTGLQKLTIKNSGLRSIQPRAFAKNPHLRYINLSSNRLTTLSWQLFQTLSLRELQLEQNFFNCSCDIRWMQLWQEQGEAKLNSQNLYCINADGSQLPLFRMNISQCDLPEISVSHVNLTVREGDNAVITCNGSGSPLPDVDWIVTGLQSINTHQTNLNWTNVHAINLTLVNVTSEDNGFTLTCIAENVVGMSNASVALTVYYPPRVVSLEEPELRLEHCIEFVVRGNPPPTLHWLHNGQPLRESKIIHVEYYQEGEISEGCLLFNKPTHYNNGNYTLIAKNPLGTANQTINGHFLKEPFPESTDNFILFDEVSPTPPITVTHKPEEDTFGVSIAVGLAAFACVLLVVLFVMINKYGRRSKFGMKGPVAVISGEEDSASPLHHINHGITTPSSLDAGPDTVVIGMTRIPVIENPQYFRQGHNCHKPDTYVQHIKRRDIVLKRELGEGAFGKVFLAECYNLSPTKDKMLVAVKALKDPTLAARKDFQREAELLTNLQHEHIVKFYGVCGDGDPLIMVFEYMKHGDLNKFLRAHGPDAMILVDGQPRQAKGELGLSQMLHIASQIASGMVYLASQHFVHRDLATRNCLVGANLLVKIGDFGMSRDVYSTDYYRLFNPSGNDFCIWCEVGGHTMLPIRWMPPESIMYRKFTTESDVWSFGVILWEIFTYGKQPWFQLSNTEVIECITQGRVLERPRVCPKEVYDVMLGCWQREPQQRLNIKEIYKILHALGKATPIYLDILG

broad panel of kinases [18] = target: broad panel of kinases (Homo sapiens, UniProt Q9UKI8); details: TLK1; 1 μM
broad panel of kinases [19] = target: broad panel of kinases (Homo sapiens, UniProt P09769); details: FGR; 1 μM
broad panel of kinases [20] = target: broad panel of kinases (Homo sapiens, UniProt Q8IWQ3); details: BRSK2; 1 μM
broad panel of kinases [21] = target: broad panel of kinases (Homo sapiens, UniProt P51451); details: BLK; 1 μM
broad panel of kinases [22] = target: broad panel of kinases (Homo sapiens, UniProt Q9UEE5); details: DRAK1; 1 μM
broad panel of kinases [23] = target: broad panel of kinases (Homo sapiens, UniProt Q86UX6); details: YANK3; 1 μM
broad panel of kinases [24] = target: broad panel of kinases (Homo sapiens, UniProt P51617); details: IRAK1; 1 μM
broad panel of kinases [25] = target: broad panel of kinases (Homo sapiens, UniProt Q96D53); details: ADCK4; 1 μM
broad panel of kinases [26] = target: broad panel of kinases (Homo sapiens, UniProt P49840); details: GSK3A; 1 μM
broad panel of kinases [27] = target: broad panel of kinases (Homo sapiens, UniProt Q13705); details: ACVR2B; 1 μM
broad panel of kinases (Homo sapiens, UniProt Q13705), sequence (Q13705 19-512 limits assumed): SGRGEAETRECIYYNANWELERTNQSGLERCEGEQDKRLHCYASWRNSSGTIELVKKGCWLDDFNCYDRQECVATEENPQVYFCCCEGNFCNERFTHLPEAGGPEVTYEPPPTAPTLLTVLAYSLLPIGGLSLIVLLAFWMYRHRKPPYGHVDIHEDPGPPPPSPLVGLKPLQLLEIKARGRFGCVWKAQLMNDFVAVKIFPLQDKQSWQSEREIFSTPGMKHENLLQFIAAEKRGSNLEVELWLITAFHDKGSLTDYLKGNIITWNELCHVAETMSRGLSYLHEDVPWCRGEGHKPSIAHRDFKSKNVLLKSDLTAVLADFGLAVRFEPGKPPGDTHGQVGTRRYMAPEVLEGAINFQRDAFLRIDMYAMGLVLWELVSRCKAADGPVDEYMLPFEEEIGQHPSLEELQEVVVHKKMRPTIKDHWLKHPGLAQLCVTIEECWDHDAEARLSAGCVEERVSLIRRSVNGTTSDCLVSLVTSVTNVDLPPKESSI

broad panel of kinases [28] = target: broad panel of kinases (Homo sapiens, UniProt P00533, DEL752-759); details: EGFR(S752-I759del); 1 μM
broad panel of kinases (Homo sapiens, UniProt P00533, DEL752-759), sequence (P00533 with tags, fused parts or gaps DEL752-759 limits assumed): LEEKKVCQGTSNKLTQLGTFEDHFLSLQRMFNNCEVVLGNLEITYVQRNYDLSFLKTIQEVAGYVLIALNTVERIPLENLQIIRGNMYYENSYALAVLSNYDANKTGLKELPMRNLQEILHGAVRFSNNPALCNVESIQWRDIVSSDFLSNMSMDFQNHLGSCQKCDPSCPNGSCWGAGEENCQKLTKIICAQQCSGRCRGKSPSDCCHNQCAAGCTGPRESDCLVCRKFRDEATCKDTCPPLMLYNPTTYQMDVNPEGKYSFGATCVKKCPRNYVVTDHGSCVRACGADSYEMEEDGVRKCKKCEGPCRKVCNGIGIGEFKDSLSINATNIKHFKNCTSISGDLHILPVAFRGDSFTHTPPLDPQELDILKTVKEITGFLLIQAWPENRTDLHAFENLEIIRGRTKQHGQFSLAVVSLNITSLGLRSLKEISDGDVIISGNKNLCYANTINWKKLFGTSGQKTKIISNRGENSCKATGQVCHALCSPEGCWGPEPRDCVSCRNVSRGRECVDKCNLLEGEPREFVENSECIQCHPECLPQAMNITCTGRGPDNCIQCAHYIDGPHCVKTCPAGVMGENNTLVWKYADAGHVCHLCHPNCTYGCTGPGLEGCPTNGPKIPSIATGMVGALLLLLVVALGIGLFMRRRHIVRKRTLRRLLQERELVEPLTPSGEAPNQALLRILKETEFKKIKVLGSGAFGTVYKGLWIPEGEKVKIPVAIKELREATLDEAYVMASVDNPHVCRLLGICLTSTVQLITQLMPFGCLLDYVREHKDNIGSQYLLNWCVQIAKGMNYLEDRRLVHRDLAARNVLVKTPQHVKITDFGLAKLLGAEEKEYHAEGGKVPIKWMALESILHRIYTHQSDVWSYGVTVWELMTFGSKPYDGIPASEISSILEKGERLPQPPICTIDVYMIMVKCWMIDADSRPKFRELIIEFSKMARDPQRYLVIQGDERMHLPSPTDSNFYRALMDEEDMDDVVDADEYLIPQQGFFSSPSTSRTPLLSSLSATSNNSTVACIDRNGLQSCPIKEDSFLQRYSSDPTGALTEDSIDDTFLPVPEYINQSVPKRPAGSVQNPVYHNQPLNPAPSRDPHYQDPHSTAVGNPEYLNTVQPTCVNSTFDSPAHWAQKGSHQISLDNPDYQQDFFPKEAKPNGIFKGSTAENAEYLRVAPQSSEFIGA

broad panel of kinases [29] = target: broad panel of kinases (Homo sapiens, UniProt Q05655); details: PRKCD; 1 μM
broad panel of kinases [30] = target: broad panel of kinases (Homo sapiens, UniProt P53779); details: JNK3; 1 μM
broad panel of kinases [31] = target: broad panel of kinases (Homo sapiens, UniProt Q9UM73); details: ALK; 1 μM
broad panel of kinases [32] = target: broad panel of kinases (Homo sapiens, UniProt Q13233); details: MAP3K1; 1 μM
broad panel of kinases (Homo sapiens, UniProt Q13233), sequence (Q13233 2-1512 limits assumed): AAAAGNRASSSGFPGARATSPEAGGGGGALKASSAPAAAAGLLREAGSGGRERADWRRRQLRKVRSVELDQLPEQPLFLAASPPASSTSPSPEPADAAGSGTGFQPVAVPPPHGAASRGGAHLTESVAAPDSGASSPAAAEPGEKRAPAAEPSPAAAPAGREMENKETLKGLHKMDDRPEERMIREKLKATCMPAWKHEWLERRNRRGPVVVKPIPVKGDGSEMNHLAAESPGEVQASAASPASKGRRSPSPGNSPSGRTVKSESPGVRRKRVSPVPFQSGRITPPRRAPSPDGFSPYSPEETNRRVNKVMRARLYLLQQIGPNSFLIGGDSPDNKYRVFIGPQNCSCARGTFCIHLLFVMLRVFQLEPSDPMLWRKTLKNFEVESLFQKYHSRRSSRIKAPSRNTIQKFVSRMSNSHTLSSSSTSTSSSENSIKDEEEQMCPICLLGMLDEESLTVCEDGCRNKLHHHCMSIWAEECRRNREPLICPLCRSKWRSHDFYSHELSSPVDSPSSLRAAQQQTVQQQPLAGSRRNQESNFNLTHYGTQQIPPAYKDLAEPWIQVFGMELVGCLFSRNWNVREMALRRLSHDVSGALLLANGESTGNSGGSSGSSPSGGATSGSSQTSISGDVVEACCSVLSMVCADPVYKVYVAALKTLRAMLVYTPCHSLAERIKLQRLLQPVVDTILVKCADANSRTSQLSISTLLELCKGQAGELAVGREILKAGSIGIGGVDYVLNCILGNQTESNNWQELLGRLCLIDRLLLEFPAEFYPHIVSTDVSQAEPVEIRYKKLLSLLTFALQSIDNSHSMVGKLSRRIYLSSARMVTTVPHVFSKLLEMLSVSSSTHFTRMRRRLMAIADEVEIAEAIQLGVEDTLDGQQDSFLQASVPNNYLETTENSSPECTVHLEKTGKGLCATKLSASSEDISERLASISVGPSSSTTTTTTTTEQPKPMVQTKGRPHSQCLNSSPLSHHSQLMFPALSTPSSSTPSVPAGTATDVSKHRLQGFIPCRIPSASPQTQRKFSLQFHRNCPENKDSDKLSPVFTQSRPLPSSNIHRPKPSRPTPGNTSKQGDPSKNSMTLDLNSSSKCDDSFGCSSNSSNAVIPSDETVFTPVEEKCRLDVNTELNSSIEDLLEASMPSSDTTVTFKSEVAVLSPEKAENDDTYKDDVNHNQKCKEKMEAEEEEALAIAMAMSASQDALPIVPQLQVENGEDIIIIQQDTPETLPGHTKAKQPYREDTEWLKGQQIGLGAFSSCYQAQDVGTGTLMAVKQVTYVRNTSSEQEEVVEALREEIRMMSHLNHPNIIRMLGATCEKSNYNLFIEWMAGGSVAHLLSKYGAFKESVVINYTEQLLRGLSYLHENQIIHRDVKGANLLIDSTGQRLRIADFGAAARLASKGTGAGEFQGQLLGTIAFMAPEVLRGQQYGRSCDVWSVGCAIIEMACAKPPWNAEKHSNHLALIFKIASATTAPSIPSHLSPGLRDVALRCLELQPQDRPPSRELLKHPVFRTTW

broad panel of kinases [33] = target: broad panel of kinases (Homo sapiens, UniProt Q02156); details: PRKCE; 1 μM
broad panel of kinases [34] = target: broad panel of kinases (Homo sapiens, UniProt P14616); details: INSRR; 1 μM
broad panel of kinases [35] = target: broad panel of kinases (Homo sapiens, UniProt P0C1S8); details: WEE2; 1 μM
broad panel of kinases [36] = target: broad panel of kinases (Homo sapiens, UniProt P37023); details: ACVRL1; 1 μM
broad panel of kinases [37] = target: broad panel of kinases (Homo sapiens, UniProt P09619); details: PDGFRB; 1 μM

Row | Structure (SMILES) | percent of control binding remaining (lower = stronger binding) (broad panel of kinases [1]) [%] | percent of control binding remaining (lower = stronger binding) (broad panel of kinases [2]) [%] | percent of control binding remaining (lower = stronger binding) (broad panel of kinases [3]) [%] | percent of control binding remaining (lower = stronger binding) (broad panel of kinases [4]) [%] | percent of control binding remaining (lower = stronger binding) (broad panel of kinases [5]) [%] | percent of control binding remaining (lower = stronger binding) (broad panel of kinases [6]) [%] | percent of control binding remaining (lower = stronger binding) (broad panel of kinases [7]) [%] | percent of control binding remaining (lower = stronger binding) (broad panel of kinases [8]; RPS6KA4(Kin.Dom.1-N-terminal)) [%] | percent of control binding remaining (lower = stronger binding) (broad panel of kinases [8]; RPS6KA4(Kin.Dom.2-C-terminal)) [%] | percent of control binding remaining (lower = stronger binding) (broad panel of kinases [9]) [%] | percent of control binding remaining (lower = stronger binding) (broad panel of kinases [10]) [%] | percent of control binding remaining (lower = stronger binding) (broad panel of kinases [11]) [%] | percent of control binding remaining (lower = stronger binding) (broad panel of kinases [12]) [%] | percent of control binding remaining (lower = stronger binding) (broad panel of kinases [13]) [%] | percent of control binding remaining (lower = stronger binding) (broad panel of kinases [14]) [%] | percent of control binding remaining (lower = stronger binding) (broad panel of kinases [15]) [%] | percent of control binding remaining (lower = stronger binding) (broad panel of kinases [16]) [%] | percent of control binding remaining (lower = stronger binding) (broad panel of kinases [17]) [%] | percent of control binding remaining (lower = stronger binding) (broad panel of kinases [18]) [%] | percent of control binding remaining (lower = stronger binding) (broad panel of kinases [19]) [%] | further results
1 | C=CC(=O)N1CC[C@H](Nc2nccc(Nc3ncc(C(=O)Nc4c(C)cccc4C)s3)n2)C1 [Example I-3] | 97 | 97 | 91 | 88 | 84 | 93 | 100 | 100 | 100 | 96 | 100 | 95 | 100 | 100 | 75 | 96 | 100 | 96 | 100 | 0 | percent of control binding remaining (lower = stronger binding) (broad panel of kinases [20]): 95%; percent of control binding remaining (lower = stronger binding) (broad panel of kinases [21]): 0%; percent of control binding remaining (lower = stronger binding) (broad panel of kinases [22]): 100%; percent of control binding remaining (lower = stronger binding) (broad panel of kinases [23]): 91%; percent of control binding remaining (lower = stronger binding) (broad panel of kinases [24]): 93%; percent of control binding remaining (lower = stronger binding) (broad panel of kinases [25]): 92%; percent of control binding remaining (lower = stronger binding) (broad panel of kinases [26]): 97%; percent of control binding remaining (lower = stronger binding) (broad panel of kinases [27]): 95%; percent of control binding remaining (lower = stronger binding) (broad panel of kinases [28]): 4.6%; percent of control binding remaining (lower = stronger binding) (broad panel of kinases [29]): 95%; percent of control binding remaining (lower = stronger binding) (broad panel of kinases [30]): 91%; percent of control binding remaining (lower = stronger binding) (broad panel of kinases [31]): 83%; percent of control binding remaining (lower = stronger binding) (broad panel of kinases [32]): 80%; percent of control binding remaining (lower = stronger binding) (broad panel of kinases [33]): 100%; percent of control binding remaining (lower = stronger binding) (broad panel of kinases [34]): 100%; percent of control binding remaining (lower = stronger binding) (broad panel of kinases [35]): 97%; percent of control binding remaining (lower = stronger binding) (broad panel of kinases [36]): 76%; % change compared to control (broad panel of kinases [37]): 0%
2 | C=CC(=O)N1CC[C@H](Nc2nc(CN3CCOCC3)cc(Nc3ncc(C(=O)Nc4c(C)cccc4C)s3)n2)C1 [Example I-2] | 97 | 89 | 92 | 73 | 89 | 98 | 100 | 100 | 96 | 100 | 100 | 100 | 92 | 100 | 90 | 96 | 99 | 99 | 100 | 0.1 | percent of control binding remaining (lower = stronger binding) (broad panel of kinases [20]): 100%; percent of control binding remaining (lower = stronger binding) (broad panel of kinases [21]): 0%; percent of control binding remaining (lower = stronger binding) (broad panel of kinases [22]): 100%; percent of control binding remaining (lower = stronger binding) (broad panel of kinases [23]): 83%; percent of control binding remaining (lower = stronger binding) (broad panel of kinases [24]): 84%; percent of control binding remaining (lower = stronger binding) (broad panel of kinases [25]): 95%; percent of control binding remaining (lower = stronger binding) (broad panel of kinases [26]): 100%; percent of control binding remaining (lower = stronger binding) (broad panel of kinases [27]): 78%; percent of control binding remaining (lower = stronger binding) (broad panel of kinases [28]): 17%; percent of control binding remaining (lower = stronger binding) (broad panel of kinases [29]): 96%; percent of control binding remaining (lower = stronger binding) (broad panel of kinases [30]): 97%; percent of control binding remaining (lower = stronger binding) (broad panel of kinases [31]): 97%; percent of control binding remaining (lower = stronger binding) (broad panel of kinases [32]): 70%; percent of control binding remaining (lower = stronger binding) (broad panel of kinases [33]): 100%; percent of control binding remaining (lower = stronger binding) (broad panel of kinases [34]): 96%; percent of control binding remaining (lower = stronger binding) (broad panel of kinases [35]): 100%; percent of control binding remaining (lower = stronger binding) (broad panel of kinases [36]): 54%; percent of control binding remaining (lower = stronger binding) (broad panel of kinases [37]): 0%
